Paper PMC9852552, “Emission of floral volatiles is facilitated by cell-wall non-specific lipid transfer proteins” (Nature Communications, 2023)
“And” between values parts separate entries of the source, which are not always exact repeats. Equal entries are not always repeated. Each block holds one molecule with its values, some of them ahead of it.

Key:
Format in all cases: binding, Petunia hybrida
[1] = test system: PhnsLTP1; assay: Activity of PhnsLTP1 with TNS (TNS fluorescence)
Experimental: (§1) To directly test whether PhnsLTP3 can bind petunia VOCs, in vitro displacement assays were performed using the recombinant PhnsLTP3 protein and fluorescent 6-(p-toluidino)−2-naphthalenesulfonate (TNS) in the presence of petunia volatiles. […] TNS fluoresces strongly when bound to the hydrophobic regions of the protein, while it has weak fluorescence in an aqueous solution. […] Potential ligands of the protein will displace the bound TNS from the hydrophobic protein pocket into the aqueous environment leading to a decrease in the fluorescent signal, which was used to calculate the dissociation constant of the protein with ligand. […]
(§2) The fluorescence-based-binding assays were performed largely according to previous publications[12],[52] with slight modifications. […] All mixtures were excited at 320 nm, and the fluorescence emission at 437 nm was recorded using a plate reader (SpectraMax iD3, Molecular Devices) at equilibrium after 5 min of incubation at 25 °C giving the background fluorescence Fmix0 and FTNS0 . The tested ligands dissolved in 2 µL DMSO were then added to the mixtures and TNS only to different final concentrations, and the fluorescence emissions were recorded at equilibrium after 5 min of incubation ( Fmixligand and FTNSligand ). […] The ratios RTNS=FTNSsol/FTNS0 and Rmix=Fmixsol/Fmix0 were calculated to calibrate the fluorescence. […]

[2] = test system: PhnsLTP3; assay: Activity of PhnsLTP3 with TNS (TNS fluorescence); conditions: for TNS fluorescence with boiled PhnsLTP3: three biological replicates
Experimental: (§3) To directly test whether PhnsLTP3 can bind petunia VOCs, in vitro displacement assays were performed using the recombinant PhnsLTP3 protein and fluorescent 6-(p-toluidino)−2-naphthalenesulfonate (TNS) in the presence of petunia volatiles. […] TNS fluoresces strongly when bound to the hydrophobic regions of the protein, while it has weak fluorescence in an aqueous solution. […] Potential ligands of the protein will displace the bound TNS from the hydrophobic protein pocket into the aqueous environment leading to a decrease in the fluorescent signal, which was used to calculate the dissociation constant of the protein with ligand. […] To test whether PhnsLTP2 and PhnsLTP3 can bind other VOCs, we assayed the terpenoids: limonene, linalool, and nerolidol, as well as methyl jasmonate in TNS displacement assays. Both PhnsLTP2 and PhnsLTP3 were able to bind tested volatile compounds with Kds in the micromolar range (Supplementary Figs. 16 and 17).
(§4) The fluorescence-based-binding assays were performed largely according to previous publications[12],[52] with slight modifications. […] All mixtures were excited at 320 nm, and the fluorescence emission at 437 nm was recorded using a plate reader (SpectraMax iD3, Molecular Devices) at equilibrium after 5 min of incubation at 25 °C giving the background fluorescence Fmix0 and FTNS0 . The tested ligands dissolved in 2 µL DMSO were then added to the mixtures and TNS only to different final concentrations, and the fluorescence emissions were recorded at equilibrium after 5 min of incubation ( Fmixligand and FTNSligand ). To account for the change in the TNS fluorescence intensity upon adding the solvent DMSO, the background fluorescence of TNS ( FTNSsol ) as well as each PhnsLTP with TNS ( Fmixsol ) were measured. The ratios RTNS=FTNSsol/FTNS0 and Rmix=Fmixsol/Fmix0 were calculated to calibrate the fluorescence. Three measurements were taken for each concentration. The results were expressed as a percentage of fluorescence quenched Fmixligand/Rmix−FTNSligand/RTNS/Fmix0−FTNS0×100% . The corresponding dissociation constants kd were obtained by non-linear regression fitting of the binding kinetics to the Michaelis-Menten equation.
Supplementary Figure 15 | Protein purification and characterization of PhnsLTP1, PhnsLTP2, and PhnsLTP3 activity with TNS. a, SDS-PAGE analysis of PhnsLTP1 after affinity chromatography on Ni-NTA agarose (lane A) and subsequent cation exchange chromatography on HiTrapTM SP HP-Cytiva (lane B). 5.3 µg protein were loaded per each lane .b, SDS-PAGE analysis of 8.75 µg of purified PhnsLTP 1, PhnsLTP 2 , and PhnsLTP 3. […] P values were determined by one-way ANOVA with the Tukey’s multiple comparisons test relative to TNS background (black) and boiled PhnsLTP3 in the presence of 200 mM DTT (blue). […]

[3] = test system: PhnsLTP2; assay: Activity of PhnsLTP2 with TNS (TNS fluorescence); conditions: three biological replicates (c2-c4); listed as PhnsLTP2+TNS
Experimental: as §1, §2

[4] = target: recombinant PhnsLTP2; assay: TNS displacement assay with recombinant PhnsLTP2; conditions: PhnsLTP2 1 µM, TNS 3 µM; non-linear fitting to Michaelis-Menten equation; means ± S.E., n = 3; read-out: dissociation constant Kd (PhnsLTP2)
Experimental: as §3, §4
Supplementary Figure 16 | Binding kinetics of recombinant PhnsLTP2 with phenylpropanoids/benzenoids by petunia flowers, terpenoids and methyl jasmonate.
TNS displacement assays were performed at fixed concentrations of PhnsLTP2 (1 µM) and TNS (3 µM) and the fluorescence was measured before and after the tested compounds were added at various concentrations. The results are expressed as percentage of fluorescence quenched with respect to the concentration of added compound. The binding curves were obtained by non-linear fitting to the Michaelis-Menten equation (solid line in the graph) and the dissociation constants Kd [µM] were obtained. Phenylacetaldehyde, eugenol, and […]
corresponding binding curves. All data are means ±S.E. (n = 3 biological replicates).

[5] = target: recombinant PhnsLTP3; assay: TNS displacement assay with recombinant PhnsLTP3; conditions: PhnsLTP3 1 µM, TNS 3 µM; for Kd: non-linear fitting to Michaelis-Menten equation (one binding site), means ± S.E., n = 3, read-out: dissociation constant Kd (PhnsLTP3); for Percentage fluorescence quenched: three biological replicates (c2-c4)
Experimental: as §3
Fig. 5 Binding kinetics of recombinant PhnsLTP3 with VOCs emitted by petunia flowers. TNS displacement assays were performed at fixed concentrations of PhnsLTP3 (1 µM) and TNS (3 µM) and the fluorescence was measured before and after the tested compounds were added at various concentrations. The results are expressed as percentage of fluorescence quenched with respect to the concentration of added compound. The binding curves were obtained by non-linear fitting to the Michaelis-Menten equation (solid line in the graph) and the dissociation constants Kd [µM] were obtained. […] All data are means ± S.E. (n = 3 biological replicates).
as §4
The binding curves of PhnsLTP3 with various VOC compounds were obtained by non-linear fitting to the one-binding-site (Eq. (1)) and two-binding-site (Eq. (2)) models. The equations assume that the ligand binds to multiple independent binding sites and that the binding to each site follows the law of mass action:1 %offluorescencequenched=Bmax×[TNS]/kd+[TNS] 2 %offluorescencequenched=Bmax1×[TNS]/kd1+[TNS]+Bmax2×[TNS]/kd2+[TNS] […]
PhnsL TP3 (1 µ M)and TNS (3 µ M)and the fluorescence was measured before and after the tested compounds were added at various concentrations. The results are expressed as percentage of fluorescence quenched with respect to the concentration of added compound.
The binding curves were obtained by non-linear fitting to the Michaelis-Menten equation (solid line in the graph) and the dissociation constants Kd [µ M]were obtained. All data are means ±S.E. (n = 3 biological replicates).
Supplementary Figure 25 | Analysis of number of binding sites of PhnsLTP3.
TNS displacement assay was performed at fixed concentrations of PhnsLTP3 (1 µM) and TNS (3 µM) and the fluorescence was measured before and after methyl […]

SMILES: Cc1ccc(Nc2ccc3cc(S(=O)(=O)O)ccc3c2)cc1 [TNS, 6-(p-toluidino)−2-naphthalenesulfonate]
- TNS-binding activity of PhnsLTP1 (in words) [1]: did not display TNS-binding activity
- TNS fluorescence with PhnsLTP1 ([1]; three biological replicates (c2-c4), listed as PhnsLTP1+TNS): 198735 A.U. and 195455 A.U. and 188087 A.U.
- TNS fluorescence with boiled PhnsLTP3 ([2]; boiled PhnsLTP3 in the presence of 200 mM DTT (negative control), listed as Boiled PhnsLTP3+TNS (200 mM DTT)): 508777 A.U. and 481415 A.U. and 534530 A.U.
- TNS fluorescence with boiled PhnsLTP3 ([2]; boiled PhnsLTP3 in the presence of 400 mM DTT (negative control), listed as Boiled PhnsLTP3+TNS (400 mM DTT)): 531842 A.U. and 534148 A.U. and 522476 A.U.
- TNS fluorescence in the presence of PhnsLTP3 (in words) ([2]; relative to buffer and denatured, dithiothreitol-reduced PhnsLTP3 controls): intense TNS fluorescence
- TNS fluorescence with PhnsLTP3 ([2]; three biological replicates (c2-c4), listed as PhnsLTP3+TNS): 1399068 A.U. and 1386931 A.U. and 1338392 A.U.
- TNS fluorescence with PhnsLTP2 [3]: 1288048 A.U. and 1292857 A.U. and 1304928 A.U.

SMILES: C=C(C)[C@H]1CC=C(C)CC1 [Limonene]
- Kd [4]: 126 ± 43.6 µM
- Kd [5]: 26.7 ± 14.2 µM

SMILES: C=CC(C)(O)CCC=C(C)C (stereo not shown) [Linalool]
- Kd [4]: 501 ± 35.8 µM
- Kd [5]: 299 ± 52.4 µM

More lines, now with the values ahead:

- Kd [4]: 114 ± 12.9 µM
- Kd [5]: 26.3 ± 10.4 µM
- Percentage fluorescence quenched ([5]; VOC concentration 3 µM): 5.78% and 5.07% and 1.21%
- Percentage fluorescence quenched ([5]; VOC concentration 30 µM): 6.62% and 14.22% and 7.63%
- Percentage fluorescence quenched ([5]; VOC concentration 300 µM): 35.76% and 34.45% and 15.77%
- Percentage fluorescence quenched ([5]; VOC concentration 1500 µM): 17.05% and 24.17% and 26.21%
- Percentage fluorescence quenched ([5]; VOC concentration 3000 µM): 22.96% and 20.23% and 21.72%
SMILES: COc1cc(C=O)ccc1O [Vanillin]

- Kd [4]: 21.8 ± 8.8 µM
- Kd [5]: 6.5 ± 2.7 µM
- Percentage fluorescence quenched ([5]; VOC concentration 1 µM): 31.47% and 9.59% and 36.79%
- Percentage fluorescence quenched ([5]; VOC concentration 3 µM): 33.25% and 16.42% and 33.70%
- Percentage fluorescence quenched ([5]; VOC concentration 5 µM): 25.37% and 28.56% and 39.27%
- Percentage fluorescence quenched ([5]; VOC concentration 12 µM): 59.42% and 53.23% and 61.87%
- Percentage fluorescence quenched ([5]; VOC concentration 30 µM): 72.95% and 50.76% and 70.40%
SMILES: O=C(OCc1ccccc1)c1ccccc1 [Benzylbenzoate]
